{"source": "patent US6313164A", "about": "“Dithiolin derivatives, their preparation and their therapeutic effect” (Sankyo Company, Limited, priority 1997, dated 2001)", "key": {"newborn rats": {"test_system": "newborn rats", "conditions": "cited from earlier work"}, "glutathione reductase": {"test_system": "glutathione reductase", "assay": "Measurement of glutathione reductase activity in cultured rat lens", "assay_type": "cell-based, SD rats", "conditions": "72 hours, 37° C.", "description": "The test animals were 6 to 8 week old male SD rats (supplier: Nippon SLC). The animals were sacrificed by suffocation by inhalation of carbon dioxide. Both eyeballs of each test animal were then excised. An incision was made in the sclera on the back of the eyeballs, and then the vitreous body and iris-ciliary body were removed, followed by removal of the lens.\nEach lens obtained in this manner was cultured by immersing it in 3 ml of the culture solution described below in a 6-well tissue culture plate (FALCON). Culturing was performed for 72 hours in a CO2 incubator maintained at 37° C. and 100% humidity in the presence of 5% CO2 (in air).\nMedium 199 (Gibco) containing penicillin (20 units/ml) and streptomycin (20 μg/ml) was used as the control culture solution.\nThe test culture solution contained the test compound added to the above-mentioned culture solution. The cultured lenses were placed in frozen storage until the time of the test.\nAfter homogenising each frozen rat lens in 2 ml of distilled water, the resulting homogenate was separated by centrifugation (10,000 g, 20 minutes) after which the resulting supernatant was used as the enzyme sample.\n400 μl of enzyme sample were added to 0.6 ml of phosphate buffer containing 1 mM oxidized glutathione (GSSG) and 100 μM NADPH. After the mixture had reacted at 25° C. for 6 minutes, the absorbance of the reaction mixture (at 340 nm: i.e. OD340nm) was measured. The difference (ΔOD340nm) between the OD340nm value before reaction and the OD340nm value after completion of the reaction was used as an indicator of glutathione reductase activity."}}, "data": [{"smiles": "O=C(O)CCCCC1CCSS1", "note": "(centres unmarked) [lipoic acid]", "values": [{"measurement": "activity of glutathione reductase", "setting": "newborn rats; lipoic acid in addition to BSO", "result": "does not increase"}, {"measurement": "cataract formation", "setting": "newborn rats; lipoic acid together with BSO", "result": "suppressed"}, {"measurement": "total glutathione (oxidized and reduced glutathione) level", "setting": "newborn rats; lipoic acid together with BSO", "result": "decrease is prevented"}]}, {"smiles": "CS(=O)(=O)NC(=O)CCCCC1CCSS1", "note": "(centres unmarked) [Example 2, N-[5-(1,2-Dithiolan-3-yl)pentanoyl]methanesulfonamide]", "values": [{"measurement": "ΔOD340 nm /min/g protein (indicator of glutathione reductase activity)", "setting": "glutathione reductase; 10 μM in lens culture solution", "result": "3.24 ± 0.10 ΔOD340 nm /min/g protein"}, {"measurement": "ΔOD340 nm /min/g protein (indicator of glutathione reductase activity)", "setting": "glutathione reductase; 30 μM in lens culture solution", "result": "3.20 ± 0.09 ΔOD340 nm /min/g protein"}, {"measurement": "ΔOD340 nm /min/g protein (indicator of glutathione reductase activity)", "setting": "glutathione reductase; 100 μM in lens culture solution, p < 0.05", "result": "3.59 ± 0.05 ΔOD340 nm /min/g protein"}, {"measurement": "ΔOD340 nm /min/g protein (indicator of glutathione reductase activity)", "setting": "glutathione reductase; 300 μM in lens culture solution, p < 0.05", "result": "3.70 ± 0.08 ΔOD340 nm /min/g protein"}, {"measurement": "ΔOD340 nm /min/g protein (indicator of glutathione reductase activity)", "setting": "glutathione reductase; 1000 μM in lens culture solution, p < 0.05", "result": "4.16 ± 0.18 ΔOD340 nm /min/g protein"}]}]}
